Data: PubChem BioAssay AID248 (DTP/NCI, 2004)
Where “and” joins values, the source holds several entries; their conditions need not be identical. Identical values can stand only once. Inconclusive results and toxic doses are left out. Rule as the data show it: active = T/C of 150% or more; inactive = T/C below 125%.

Test system: L1210 leukemia ip in BDF1 mice, survival T/C
Assay: NCI In Vivo Anticancer Drug Screen. Data for tumor model L1210 Leukemia (intraperitoneal) in B6D2F1 (BDF1) mice
Settings: endpoint: mean survival time, higher = longer survival
Procedure, shortened: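 Value reflects the ratio of survival in compound-treated mice to survival in vehicle-treated controls, with both groups carrying the same transplanted tumor.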

[1] = dose: 100.0 mg/kg/injection, schedule: Q01DX001 (ip), vehicle: saline with Tween-80
[2] = dose: 200.0 mg/kg/injection, schedule: Q01DX001 (ip), vehicle: saline with Tween-80
[3] = dose: 400.0 mg/kg/injection, schedule: Q01DX001 (ip), vehicle: saline with Tween-80
[4] = dose: 50.0 mg/kg/injection, schedule: Q04DX003 (ip), vehicle: Klucel (hydroxypropylcellulose) (HPC)
[5] = dose: 100.0 mg/kg/injection, schedule: Q01DX001 (ip), vehicle: saline
[6] = dose: 100.0 mg/kg/injection, schedule: Q04DX003 (ip), vehicle: Klucel (hydroxypropylcellulose) (HPC)
[7] = dose: 200.0 mg/kg/injection, schedule: Q01DX001 (ip), vehicle: saline
[8] = dose: 200.0 mg/kg/injection, schedule: Q04DX003 (ip), vehicle: Klucel (hydroxypropylcellulose) (HPC)
[9] = dose: 75.0 mg/kg/injection, schedule: Q01DX001 (ip), vehicle: other
[10] = dose: 150.0 mg/kg/injection, schedule: Q01DX001 (ip), vehicle: other
[11] = dose: 300.0 mg/kg/injection, schedule: Q01DX001 (ip), vehicle: other
[12] = dose: 50.0 mg/kg/injection, schedule: Q01DX001 (ip), vehicle: saline
[13] = dose: 400.0 mg/kg/injection, schedule: Q01DX001 (ip), vehicle: saline

Measured: T/C

CC(=O)Nc1ccc(CC(=O)O)cc1
inactive: [1] 96 % of control | [2] 93 % of control | [3] 100 % of control

CCN(CC)CCCC(C)Nc1cc(/C=C/c2ccc(Cl)cc2)nc(/C=C/c2ccc(Cl)cc2)n1 (centres undefined)
inactive: [4] 96 % of control | [5] 96 % of control | [6] 96 % of control | [7] 98 % of control | [8] 98 % of control

c1ccc([C](c2ccccc2)(c2ccccc2)[Sn]([c]2ccccc2)([c]2ccccc2)[c]2ccccc2)cc1
inactive: dose: 25.6 mg/kg/injection, schedule: Q04DX002 (ip), vehicle: saline with Tween-80 121 % of control | dose: 64.0 mg/kg/injection, schedule: Q04DX002 (ip), vehicle: saline with Tween-80 86 % of control | dose: 160.0 mg/kg/injection, schedule: Q04DX002 (ip), vehicle: saline with Tween-80 86 % of control | dose: 400.0 mg/kg/injection, schedule: Q04DX002 (ip), vehicle: saline with Tween-80 86 % of control

Cc1c2cnccc2c(C)c2c1sc1ccccc12
inactive: [9] 101 % of control | [10] 106 % of control | [11] 124 % of control

CCOC(=O)CNC(=O)OCCSc1ccc(C)cc1
inactive: dose: 100.0 mg/kg/injection, schedule: Q01DX009 (ip), vehicle: saline with Tween-80 97 % of control | dose: 200.0 mg/kg/injection, schedule: Q01DX009 (ip), vehicle: saline with Tween-80 93 % of control

Nc1nc(SCC(=O)c2ccc(Cl)cc2)c2c(n1)SCC(c1ccc(Cl)cc1)=N2
inactive: [1] 97 % of control | [2] 101 % of control | [3] 92 % of control

CC(C)(O)C(C)(O)c1cccc(Cl)c1 (centres undefined)
inactive: dose: 12.5 mg/kg/injection, schedule: Q01DX009 (ip), vehicle: Klucel (hydroxypropylcellulose) (HPC) 100 % of control | dose: 25.0 mg/kg/injection, schedule: Q01DX009 (ip), vehicle: Klucel (hydroxypropylcellulose) (HPC) 109 % of control | dose: 25.0 mg/kg/injection, schedule: Q04DX003 (ip), vehicle: Klucel (hydroxypropylcellulose) (HPC) 91 % of control | dose: 50.0 mg/kg/injection, schedule: Q01DX009 (ip), vehicle: Klucel (hydroxypropylcellulose) (HPC) 100 % of control | [4] 93 % of control | dose: 100.0 mg/kg/injection, schedule: Q01DX009 (ip), vehicle: Klucel (hydroxypropylcellulose) (HPC) 100 % of control | [6] 96 % of control | dose: 200.0 mg/kg/injection, schedule: Q01DX009 (ip), vehicle: Klucel (hydroxypropylcellulose) (HPC) 98 % of control | [8] 90 % of control

Cc1ccccc1C(c1ccccc1)N(C)C (centres undefined)
inactive: [12] 100 % of control | [5] 96 % of control | [7] 96 % of control | [13] 92 % of control

C=COC(=O)NC(C(=O)O)C(C)C (centres undefined)
inactive: [5] 96 % of control

O=C(CCCc1ccccc1)N1CCOCC1
inactive: dose: 100.0 mg/kg/injection, schedule: Q01DX009 (ip), vehicle: saline sonified 94 % of control | dose: 200.0 mg/kg/injection, schedule: Q01DX009 (ip), vehicle: saline sonified 96 % of control | dose: 400.0 mg/kg/injection, schedule: Q01DX009 (ip), vehicle: saline sonified 102 % of control

O=C1CCC(N2C(=O)C3C4C=CC(C4)C3C2=O)C(=O)N1 (centres undefined)
inactive: dose: 100.0 mg/kg/injection, schedule: Q04DX003 (ip), vehicle: saline 101 % of control | dose: 200.0 mg/kg/injection, schedule: Q04DX003 (ip), vehicle: saline 101 % of control | dose: 400.0 mg/kg/injection, schedule: Q04DX003 (ip), vehicle: saline 97 % of control

Cn1c(=O)c2[nH]c(C3CCCCCC3)nc2n(C)c1=O
inactive: [12] 87 % of control | [5] 96 % of control | [7] 87 % of control

NS(=O)(=O)c1ccc(N2CCCCC2)c([N+](=O)[O-])c1
inactive: dose: 100.0 mg/kg/injection, schedule: Q01DX005 (ip), vehicle: other 105 % of control | dose: 200.0 mg/kg/injection, schedule: Q01DX005 (ip), vehicle: other 94 % of control | dose: 400.0 mg/kg/injection, schedule: Q01DX005 (ip), vehicle: other 108 % of control

COc1cc(Nc2ccc(Oc3ccc(O)c(CN)c3)cc2)c2ncccc2c1
inactive: [9] 103 % of control | [10] 97 % of control | [11] 100 % of control

NC(=S)N/N=C\c1csc2ccccc12
inactive: dose: 100.0 mg/kg/injection, schedule: Q01DX001 (ip), vehicle: carboxymethylcellulose (CMC) 92 % of control | [5] 96 % of control | dose: 200.0 mg/kg/injection, schedule: Q01DX001 (ip), vehicle: carboxymethylcellulose (CMC) 92 % of control | [7] 107 % of control | dose: 400.0 mg/kg/injection, schedule: Q01DX001 (ip), vehicle: carboxymethylcellulose (CMC) 95 % of control | [13] 94 % of control

CCCCCCCCOc1ccc(C2=NN(c3ccccc3)C(=O)C2)cc1
inactive: [4] 110 % of control | dose: 100.0 mg/kg/injection, schedule: Q01DX001 (ip), vehicle: Klucel (hydroxypropylcellulose) (HPC) 96 % of control | [6] 90 % of control | dose: 200.0 mg/kg/injection, schedule: Q01DX001 (ip), vehicle: Klucel (hydroxypropylcellulose) (HPC) 100 % of control | [8] 100 % of control | dose: 400.0 mg/kg/injection, schedule: Q01DX001 (ip), vehicle: Klucel (hydroxypropylcellulose) (HPC) 102 % of control

CCCCOP(=O)(OCCCC)Oc1cccc([N+](=O)[O-])c1
inactive: dose: 6.25 mg/kg/injection, schedule: Q01DX009 (ip), vehicle: carboxymethylcellulose (CMC) 117 % of control and 89 % of control | dose: 6.25 mg/kg/injection, schedule: Q04DX002 (ip), vehicle: carboxymethylcellulose (CMC) 93 % of control and 101 % of control | dose: 12.5 mg/kg/injection, schedule: Q01DX009 (ip), vehicle: carboxymethylcellulose (CMC) 110 % of control and 89 % of control | dose: 12.5 mg/kg/injection, schedule: Q04DX002 (ip), vehicle: carboxymethylcellulose (CMC) 93 % of control and 101 % of control | dose: 25.0 mg/kg/injection, schedule: Q01DX001 (ip), vehicle: carboxymethylcellulose (CMC) 104 % of control | dose: 25.0 mg/kg/injection, schedule: Q01DX009 (ip), vehicle: carboxymethylcellulose (CMC) 98 % of control and 92 % of control | dose: 50.0 mg/kg/injection, schedule: Q01DX001 (ip), vehicle: carboxymethylcellulose (CMC) 100 % of control

COc1ccc(/C=N/NC(=O)c2ccc(N)cc2)c(OC)c1
inactive: dose: 100.0 mg/kg/injection, schedule: Q04DX002 (ip), vehicle: saline 101 % of control | dose: 200.0 mg/kg/injection, schedule: Q04DX002 (ip), vehicle: saline 108 % of control | dose: 400.0 mg/kg/injection, schedule: Q04DX002 (ip), vehicle: saline 97 % of control

CNC(=O)Oc1ccc(N=Nc2ccccc2)cc1
inactive: dose: 100.0 mg/kg/injection, schedule: Q01DX001 (ip), vehicle: other 96 % of control | dose: 200.0 mg/kg/injection, schedule: Q01DX001 (ip), vehicle: other 96 % of control | dose: 400.0 mg/kg/injection, schedule: Q01DX001 (ip), vehicle: other 96 % of control
